According to ChEMBL document CHEMBL1148319, “A molecular basis for the selectivity of thiadiazole urea inhibitors with stromelysin-1 and gelatinase-A from generalized born molecular dynamics simulations” (J Med Chem, 2004):

target: 72 kDa type IV collagenase (Homo sapiens, UniProt P08253)
Sequence (P08253 whole entry): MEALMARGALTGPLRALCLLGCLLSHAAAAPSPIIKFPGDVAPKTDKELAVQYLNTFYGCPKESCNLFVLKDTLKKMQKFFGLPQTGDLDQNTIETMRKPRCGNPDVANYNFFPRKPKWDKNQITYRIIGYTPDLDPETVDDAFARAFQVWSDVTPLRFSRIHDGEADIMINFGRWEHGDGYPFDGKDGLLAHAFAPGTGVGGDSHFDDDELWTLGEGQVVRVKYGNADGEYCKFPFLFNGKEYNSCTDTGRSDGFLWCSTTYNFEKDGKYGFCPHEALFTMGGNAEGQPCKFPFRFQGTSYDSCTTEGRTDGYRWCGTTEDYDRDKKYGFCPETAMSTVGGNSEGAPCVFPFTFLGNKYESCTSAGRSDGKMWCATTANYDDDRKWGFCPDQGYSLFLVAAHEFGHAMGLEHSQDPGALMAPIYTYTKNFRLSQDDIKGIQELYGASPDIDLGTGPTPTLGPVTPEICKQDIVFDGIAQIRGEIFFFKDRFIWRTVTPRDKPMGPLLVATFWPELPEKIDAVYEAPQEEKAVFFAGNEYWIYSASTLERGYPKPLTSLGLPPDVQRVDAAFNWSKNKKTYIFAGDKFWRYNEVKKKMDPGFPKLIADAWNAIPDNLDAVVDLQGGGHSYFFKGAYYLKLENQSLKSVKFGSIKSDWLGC
Description: Inhibition of human Matrix metalloprotease-2 (gelatinase-A)

Structure (SMILES)	Ki [µM]
CNC(=O)[C@H](Cc1c(F)c(F)c(F)c(F)c1F)NC(=O)Nc1nnc(S)s1	3
NC(=O)[C@H](Cc1ccccc1)NC(=O)Nc1nnc(S)s1	> 200
CNC(=O)[C@H](Cc1ccccc1)NC(=O)Nc1nnc(S)s1	3

The next lines start with the values.

Ki [µM]	Structure (SMILES)
> 100	CNC(=O)CNC(=O)Nc1n[nH]c(=S)s1
> 200	CNC(=O)[C@H](CO)NC(=O)Nc1n[nH]c(=S)s1
226	CN(C)C(=O)[C@H](Cc1ccccc1)NC(=O)Nc1nnc(S)s1
